Active and inactive are the calls of the source. The rule behind the calls is not given here.

Data set [1] is described as follows: Inhibition of A23187-induced 12-hydroxy-5,8,10-heptadecatrienoic acid formation in human polymorphonuclear leukocytes. The data set is classed as functional, cell-based.
The species entered for data set [2] is Homo sapiens. Briefly: Inhibition of A23187-induced LTB4 formation in human polymorphonuclear leukocytes at 100 to 1000 uM. The data set is classed as functional, cell-based.
The species named for data set [3] is Homo sapiens. Briefly: Inhibition of A23187-induced 5HETE formation in human polymorphonuclear leukocytes at 100 to 1000 uM. The data set is classed as functional, cell-based.
Data set [4] can be described thus: Cytotoxicity against human polymorphonuclear leukocytes assessed as occurrence of cell suspension or lactate dehydrogenase release at 1 to 1000 uM.
The nature of data set [5]: Inhibition of A23187-induced 5HETE formation in human polymorphonuclear leukocytes. Type of data set: functional, cell-based.
The species entered for data set [6] is Homo sapiens. Briefly: Enhancement of PGE2 formation in A-23187-stimulated human polymorphonuclear leukocytes at 100 uM. The data set is classed as functional.
Data set [7] can be described thus: Inhibition of A23187-induced LTB4 formation in human polymorphonuclear leukocytes. The data set is classed as functional, cell-based.
Data set [8] is described as follows: Formation of PGE2 in A-23187-stimulated human polymorphonuclear leukocytes at 1000 uM relative to control. The data set is classed as functional.
Data set [9] in a line: Formation of PGE2 in A-23187-stimulated human polymorphonuclear leukocytes at 100 uM relative to control. Type of data set: functional.
Data set [10] is described as follows: Formation of PGE2 in A-23187-stimulated human polymorphonuclear leukocytes at 10 uM relative to control. The data set is classed as functional.
The nature of data set [11]: Formation of 15HETE in A-23187-stimulated human polymorphonuclear leukocytes at 1000 uM relative to control. Type of data set: functional.
Data set [12] is filed under the species Homo sapiens. Briefly: Inhibition of A23187-induced 12-hydroxy-5,8,10-heptadecatrienoic acid formation in human polymorphonuclear leukocytes at 100 to 1000 uM. The data set is classed as functional, cell-based.
The species named for data set [13] is Homo sapiens. Briefly: Inhibition of A23187-induced 15HETE formation in human polymorphonuclear leukocytes at 100 to 1000 uM. The data set is classed as functional, cell-based.
Data set [14] can be described thus: Inhibition of A23187-induced 15HETE formation in human polymorphonuclear leukocytes. Type of data set: functional, cell-based.
Data set [15] is filed under the species Homo sapiens. Briefly: Inhibition of A23187-induced 12-hydroxy-5,8,10-heptadecatrienoic acid formation in human polymorphonuclear leukocytes at 1 to 100 uM. Type of data set: functional, cell-based.
Data set [16] is filed under the species Homo sapiens. Briefly: Inhibition of A23187-induced PGE2 formation in human polymorphonuclear leukocytes at 1 to 100 uM. The data set is classed as functional, cell-based.
Data set [17] is described as follows: Formation of 12-hydroxy-5,8,10-heptadecatrienoic acid in A-23187-stimulated human polymorphonuclear leukocytes at 1000 uM relative to control. The data set is classed as functional.
The species entered for data set [18] is Homo sapiens. Briefly: Enhancement of PGE2 formation in A-23187-stimulated human polymorphonuclear leukocytes at 100 to 1000 uM. The data set is classed as functional.
Data set [19] can be described thus: Formation of 15HETE in A-23187-stimulated human polymorphonuclear leukocytes at 100 uM relative to control. Type of data set: functional.
Data set [20] in a line: Formation of 15HETE in A-23187-stimulated human polymorphonuclear leukocytes at 10 uM relative to control. Type of data set: functional.
Data set [21] is filed under the species Homo sapiens. Briefly: Inhibition of A23187-induced 5HETE formation in human polymorphonuclear leukocytes at 1 to 1000 uM. Type of data set: functional, cell-based.
For data set [22], the species on record is Homo sapiens. Briefly: Inhibition of A23187-induced 12-hydroxy-5,8,10-heptadecatrienoic acid formation in human polymorphonuclear leukocytes at 1000 uM. The data set is classed as functional, cell-based.
The species named for data set [23] is Homo sapiens. Briefly: Enhancement of PGE2 formation in A-23187-stimulated human polymorphonuclear leukocytes at 10 to 100 uM. Type of data set: functional.
The species entered for data set [24] is Homo sapiens. Briefly: Enhancement of 15HETE formation in A-23187-stimulated human polymorphonuclear leukocytes at 10 to 100 uM. The data set is classed as functional.

As a reminder, the IC50 is the midpoint of a concentration-inhibition curve. For `O=C(/C=C/c1ccc(O)c(O)c1)O[C@@H]1[C@H](O)C[C@@](O)(C(=O)O)C[C@H]1OC(=O)/C=C/c1ccc(O)c(O)c1`, the concentration for half-maximal inhibition (IC50) came out at 80 µM in data set [1]; 749 µM in [5] (Homo sapiens, read-out: IC50); 92.5 µM in data set [7] (Homo sapiens, read-out: IC50). The inhibition entry in data set [2] and in data set [3] was “Active” throughout. In data set [4], the Activity entry was “Non-toxic”. Besides, in [6], the outcome was Active.
For `O=C(/C=C/c1ccc(O)c(O)c1)O[C@H]1[C@H](O)C[C@](O)(C(=O)O)C[C@H]1OC(=O)/C=C/c1ccc(O)c(O)c1`, the IC50 was 740 µM in data set [1]; 601 µM in data set [5] (Homo sapiens, read-out: IC50); 443 µM in data set [7] (Homo sapiens, read-out: IC50). In addition, the Activity is 79.5% in data set [8]; 155% in [9]; “Non-toxic” in [4]; 126% in data set [10]; 56.9% in data set [11]. Further, the inhibition result in data set [2] and in data set [3] was “Active” throughout. The outcome in data set [6] was Active.
With `O=C(/C=C/c1ccc(O)c(O)c1)O[C@H](Cc1ccc(O)c(O)c1)C(=O)O` [ROSMARINIC ACID], the IC50 is 459 µM in data set [1]; “Dose-dependent effect” in data set [5]; 214 µM in data set [5] (Homo sapiens, read-out: IC50); 455 µM in [14]; “Dose-dependent effect” in data set [7]; 55.6 µM in [7] (Homo sapiens, read-out: IC50). Further, the inhibition entry in [12] and in data set [13] was “Active” throughout. Besides, the values for the Activity in data set [8], in [4] and in data set [10] were 48%, “Non-toxic” and 143.4%, respectively. For the same compound, in data set [6], the outcome was Active.
With `COc1ccc2c(c1)c(CC(=O)O)c(C)n2C(=O)c1ccc(Cl)cc1`, the inhibition entry in data set [15] and in [16] was “Active” in each case.
In the case of `O=C(/C=C/c1ccc(O)c(O)c1)OC(C(=O)O)C(O)C(=O)O` (centres undefined) [CAFFEOYLTARTARIC ACID], the Activity in [17] is 57.9%; in [4], “Non-toxic”; in data set [11], 55%. For the same compound, the inhibition entry in data set [2] and in [3] was “Active” in each case. Besides, the IC50 in [5] (Homo sapiens, read-out: IC50) came to 873 µM; in data set [7] (Homo sapiens, read-out: IC50) it was 433 µM. For the same compound, the result in data set [18] was Active.
Turning to `O=C(/C=C/c1ccc(O)c(O)c1)O[C@@H]1C[C@](O)(C(=O)O)C[C@@H](OC(=O)/C=C/c2ccc(O)c(O)c2)[C@H]1O`, the IC50 in data set [1] was found to be 902 µM; in [5] (Homo sapiens, read-out: IC50), 666 µM; in [7] (Homo sapiens, read-out: IC50), 85.9 µM. Besides, the Activity in [19] is listed as 121.1%; in data set [8] it was 97.5%; in data set [9] it was 160.8%; in data set [4] it was “Non-toxic”; in data set [11] it was 50.9%. Also, the inhibition entry in data set [2] and in data set [3] was “Active” throughout. In addition, the result in [6] was Active.
On to `O=C(O)CC(OC(=O)/C=C/c1ccc(O)c(O)c1)C(=O)O` (centres undefined) [CAFFEOYLMALIC ACID], for which the IC50 was 796 µM in [1]; 918 µM in data set [5] (Homo sapiens, read-out: IC50); 548 µM in data set [7] (Homo sapiens, read-out: IC50). Moreover, the Activity in [19] is 141.5%; in data set [20] it was 106.3%; in data set [4], “Non-toxic”; in data set [11], 114.8%. Further, the inhibition result in [2] and in [3] was “Active” throughout. In addition, in [18], the result was Active.
Consider `O=C(/C=C/c1ccc(O)c(O)c1)O[C@@H]1C[C@](O)(C(=O)O)C[C@@H](O)[C@H]1O` [CHLOROGENIC ACID], for which, in [4], the Activity result was “Non-toxic”.
For `O=C(O)/C=C/c1ccc(O)c(O)c1` [CAFFEIC ACID], the Activity in data set [19] is listed as 153.7%; in [20], 136.7%; in data set [4] it was “Non-toxic”; in data set [11], 96.5%. For the same compound, the inhibition entry in [21] and in data set [22] was “Active” throughout. The result in data set [23], in data set [24] and in [18] was Active. Moreover, the IC50 in data set [5] (Homo sapiens, read-out: IC50) was 276 µM; in data set [7], “Dose-dependent effect”; in data set [7] (Homo sapiens, read-out: IC50) it was 411 µM.

The record behind these values is ChEMBL document CHEMBL1150175, “Studies on the activities of tannins and related compounds, X. Effects of caffeetannins and related compounds on arachidonate metabolism in human polymorphonuclear leukocytes” (J Nat Prod, 1987).
